Results taken from patent publication US8008340B2, “3-arylthioindole-2-carboxamide derivatives and analogs thereof as inhibitors of casein kinase I” (Aventis Pharmaceuticals Inc., priority 2004, dated 2011).

Assays:
[1] = molecular target: T1, casein kinase 1ε (Homo sapiens, UniProt P49674); test: Casein Kinase Epsilon 33P-ATP Filter Plate Assay; assay type: biochemical; settings: phosphorylation of casein, 33P-ATP with 10 μM cold ATP, 2 hours at room temperature; * denotes average of two or more determinations; read-out: CKIε Inhibition IC50
T1 construct: made in house
Method: Casein Kinase Epsilon ^33P-ATP Filter Plate Assay for Screening CK1ε Inhibitors Purpose: This assay measures the effect of compounds to inhibit the phosphorylation of the substrate casein by the enzyme casein kinase 1ε using an in vitro ^33P-ATP filtration assay. Compounds are tested at five concentrations in duplicate in order to generate IC50 values or % inhibition at a 10 micromolar concentration that are summarized in Table 4.
Enzyme: • Casein Kinase 1ε final concentration 0.58 mg/ml obtained from fermentation and purification processes as are well known to one skilled in the art. The above are stored as 100 μL aliquots at minus 80° C.
Compounds: • Compounds for testing are supplied as frozen 10 mM compound stock dissolved in 100% DMSO. Assay Conditions:
Final total assay volume per well is equal to 50 μL made up as follows: • 5 μL of diluted compound stock (10, 1, 0.1, 0.01 or 0.001 μM), • 5 μL of dephosphorylated casein final concentration 0.2 μg/μL, • 20 μL of CK1ε final concentration 3 ng/μL, and • 20 μL of γ-^33P-ATP final concentration 0.02 μCi/μL mixed with cold ATP (10 μM final). Methodology: • 1. 500 mL of fresh assay buffer is made: 50 mM Tris pH 7.5, 10 mM MgCl2, 2 mM DTT and 1 mM EGTA • 2. Compounds to be evaluated are obtained as 10 μL of 10 mM stock dissolved in 100% DMSO. Using a Biomek 2000 liquid handling robot, serial dilutions are made to yield 10, 1, 0.1, 0.01 and 0.001 μM final compound dilutions added as 5 μL additions to Falcon U bottom plates. Typically 8 compounds are tested per 96 well plate with column 1 and 12 serving as control wells. A routine screening assay will consist of 32 compounds, which equals 4 assay plates. • 3. Assay plate maps are set up according to the following pattern CKlePlateMap.xls
• 4. Once 5 μL of compound has been added as indicated, 5 μL of dephosphorylated casein (dissolved in distilled H2O)(0.2 μg/μL) and 20 μL CK1ε (3 ng/μL) are added to the appropriate wells. • 5. Finally 20 μL γ-^33P-ATP (0.02 μCi/μL)/10 μM cold ATP are added (equals approximately 2×10^6 CPM per well). • 6. The Falcon U-Bottom assay plate containing the above 50 μL reaction volume is vortexed and then incubated at room temperature for 2 hours. • 7. At the end of 2 hours, the reaction is stopped by the addition of 65 μL of ice cold 2 mM cold ATP (made up in assay buffer) to the assay plates using a Beckman Multimek • 8. At the same time 25 μL 100% ice cold TCA made up in distilled H2O is added to a matching number of Millipore MAPH filter plates. • 9. Using a handheld 8-channel pipettor, 100 μL of the reaction mixture is transferred from the Falcon U-Bottom Plate to the Millipore MAPH filter plates presoaked with TCA. • 10. The Millipore MAPH filter plates are mixed gently and allowed to sit at room temperature for at least 30 minutes to precipitate the proteins. • 11. After 30 minutes the filter plates are placed on a Millipore vacuum manifold and filtered at no more than 8 mm Hg as the MAPH filters tend to “air lock” at higher vacuum settings. • 12. The filter plates are sequentially washed and filtered with 2×150 μL 20% TCA, 2×150 μL 10% TCA and 2×150 μL 5% TCA (total of 6 washes per plate/900 μL per well). • 13. Plates are allowed to dry overnight at room temperature. The next day 40 μL Packard Microscint-20 Scintillation Fluid is added per well using a Titertek Multidrop dispenser; the plates are sealed and counted for 2 minutes/well in a Packard Topcount NXT Scintillation Counter (CPM values/well are captured).
Calculation: • 1. Counts Per Minute (CPM) data is captured and imported into a proprietary data calculation and archiving database (Activity Base by IDBS version 5.0). • 2. Column 1 for each plate reflects total phosphorylation activity of the enzyme in the absence of any inhibiting compound and thus represents 100%. Column 12 reflects any nonspecific phosphorylation/retained radioactivity activity in the absence of inhibiting compound and enzyme. […]

[2] = tested on: Mper1-luc Rat-1 fibroblasts (P2C4); test: Cellular Circadian Assay (Mper1-luc reporter, period lengthening); assay type: cell-based; settings: effective micromolar concentration that induced a 1 hour lengthening of period
Excerpt: U.S. Pat. No. 6,555,328 B1 discloses screening methods in cells to identify compounds that alter circadian rhythms based on a test compound altering the ability of human casein kinase 1ε and/or human casein kinase 1δ to phosphorylate the human clock proteins hPER1, hPER2 and hPER3. For example, HEK293T cells are co-transfected with hCKIε and Per1 or Per2. For the purpose of evaluating the relevancy of CKIε inhibition and CKIε inhibitors to circadian biology, a high-throughput cellular assay (33rd Annual Meeting, Soc. for Neurosci., Nov. 8-12, 2003, Abstract numbers 284.1, 284.2, and 284.3) was developed in which circadian rhythm could be monitored in a routine manner. The assay consists of Rat-1 fibroblasts stably expressing an Mper1-luc construct, thus enabling the determination of the rhythmic activation of the Mper1 promoter in living cells by repeatedly estimating luciferase activity by monitoring light-output over several days. The repeated measure format of the assay permits accurate and reproducible assessment of the concentration-dependent effects of CKIε inhibitors on circadian rhythm and provides the nexus for relating CKIε inhibition to circadian period alteration.
Cell culture: Mper1-luc Rat-1 fibroblasts (P2C4) cultures were split every 3-4 days (˜10-20% confluence) onto 150 cm^2 vented polystyrene tissue culture flasks (Falcon #35-5001) and maintained in growth media [EMEM (Cellgro #10-010-CV); 10% fetal bovine serum (FBS; Gibco #16000-044); and 50 I.U./mL penicillin-streptomycin (Cellgro #30-001-C1)] at 37° C. and 5% CO2. […] Zeocin-resistant stable transfectants were assessed for reporter expression by supplementing growth media with 100 μM luciferin (Promega #E1603) and assaying luciferase activity on a TopCount scintillation counter (Packard Model #C384V00). Rat-1 clones expressing both Zeocin-resistance and mPer1-driven luciferase activity were synchronized by 50% horse serum [HS (Gibco #16050-122)] serum shock and assessed for circadian reporter activity. […]

T1 sequence (P49674 whole entry): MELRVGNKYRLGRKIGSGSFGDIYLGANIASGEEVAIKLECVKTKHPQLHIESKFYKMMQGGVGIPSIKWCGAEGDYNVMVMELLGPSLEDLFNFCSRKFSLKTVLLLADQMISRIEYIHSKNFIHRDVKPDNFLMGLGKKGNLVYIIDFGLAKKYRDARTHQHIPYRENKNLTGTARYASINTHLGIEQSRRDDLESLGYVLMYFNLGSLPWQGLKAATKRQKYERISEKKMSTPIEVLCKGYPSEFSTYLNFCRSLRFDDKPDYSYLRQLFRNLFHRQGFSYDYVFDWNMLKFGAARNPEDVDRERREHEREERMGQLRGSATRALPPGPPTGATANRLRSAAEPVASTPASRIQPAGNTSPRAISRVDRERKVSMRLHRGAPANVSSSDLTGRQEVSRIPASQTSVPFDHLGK

| Structure (SMILES) | IC50 [1] [µM] | melting point [°C] | Cell Assay ECΔτ+1h [2] [µM] |
| --- | --- | --- | --- |
| NC(=O)c1[nH]c2ccc(Cl)cc2c1S(=O)(=O)c1ccccc1 [Ia, 3-Benzensulfonyl-5-chloro-1H-indole-2-carboxylic acid amide] | > 10 | – | – |
| O=C(c1[nH]c2ccc(F)cc2c1Sc1ccccn1)N1CCCC1 [Iaf, [5-Fluoro-3-(pyridin-2-ylsulfanyl)-1H-indol-2-yl]-pyrrolidin-1-yl-methanone] | – | 254 to 255 | – |
| O=C(c1[nH]c2ccccc2c1Sc1ccccn1)N1CCCC1 [Iag, [3-(Pyridin-2-ylsulfanyl)-1H-indol-2-yl]-pyrrolidin-1-yl-methanone] | – | 213 to 214 | – |
| NC(=O)c1[nH]c2ccccc2c1Sc1ccccn1 [Ii, 3-(Pyridin-2-ylsulfanyl)-1H-indole-2-carboxylic acid amide] | 187 | – | – |
| CNC(=O)c1[nH]c2ccccc2c1Sc1ccccc1 [Ij, 3-Phenylsulfanyl-1H-indole-2-carboxylic Acid Methylamide] | > 10 | – | – |
| CNC(=O)c1[nH]c2ccccc2c1Sc1ccccn1 [Ik, 3-(Pyridin-2-ylsulfanyl)-1H-indole-2-carboxylic acid methylamide] | > 10 | – | – |
| NC(=O)c1[nH]c2ccccc2c1Oc1ccccc1 [Il, 3-Phenoxy-1H-indole-2-carboxylic acid amide] | > 10 | – | – |
| COc1c(C(N)=O)[nH]c2ccccc12 [Iq, 3-Methoxy-1H-indole-2-carboxylic acid amide] | 13.5 | – | – |
| CC(C)Oc1c(C(N)=O)[nH]c2ccccc12 [Is, 3-Isopropoxy-1H-indole-2-carboxylic acid amide] | 8.9 | – | – |
| CC(C)(C)Oc1c(C(N)=O)[nH]c2ccccc12 [It, 3-tert-Butoxy-1H-indole-2-carboxylic acid amide] | 11.7 | – | – |
| NC(=O)c1[nH]c2ccccc2c1OCc1ccccc1 [Iu, 3-Benzyloxy-1H-indole-2-carboxylic acid amide] | 9.9 | – | – |
| Cc1ccc(Sc2c(C(=O)N3CCCC3)[nH]c3ccc(F)cc23)cc1 [Iw, (5-Fluoro-3-p-tolylsulfanyl-1H-indol-2-yl)-pyrrolidin-1-yl-methanone] | – | 254 to 255 | – |
| O=C(c1[nH]c2ccccc2c1Sc1ccccc1)N1CCCCC1 [Ix, (3-Phenylsulfanyl-1H-indol-2yl)-piperidin-1-yl-methanone] | – | 161 to 162 | – |
| O=C(c1[nH]c2ccc(F)cc2c1Sc1ccccc1)N1CCCC1 [Iy, (5-Fluoro-3-phenylsulfanyl-1H-indol-2-yl)-pyrrolidin-1-yl-methanone] | – | 254 to 255 | – |

Now from value to molecule, other results behind:

| IC50 [1] [µM] | melting point [°C] | Structure (SMILES) | Cell Assay ECΔτ+1h [2] [µM] |
| --- | --- | --- | --- |
| 2.7 | – | NC(=O)c1[nH]c2ccccc2c1S(=O)(=O)c1ccccc1 [Ib, 3-Benzensulfonyl-1H-indole-2-carboxylic acid amide] | – |
| 3.1 | 197 to 197.5 | NC(=O)c1[nH]c2ccccc2c1Sc1ccccc1 [Ic, 3-Phenylsulfanyl-1H-indole-2-carboxylic acid amide] | – |
| 0.42 | – | NC(=O)c1[nH]c2ccc(Br)cc2c1Sc1ccccc1 [Id, 5-Bromo-3-phenylsulfanyl-1H-indole-2-carboxylic acid amide] | – |
| 0.18 | – | COc1ccc2[nH]c(C(N)=O)c(Sc3ccccc3N)c2c1 [Ie, 3-(2-Amino-phenylsulfanyl)-5-methoxy-1H-indole-2-carboxylic acid amide] | >10 |
| 0.43 | – | NC(=O)c1[nH]c2ccccc2c1Sc1cccc(F)c1 [If, 3-(3-Fluoro-phenylsulfanyl)-1H-indole-2-carboxylic acid amide] | 1.6 |
| 0.12 | – | NC(=O)c1[nH]c2ccc(Br)cc2c1Sc1ccccc1N [Ig, 3-(2-Amino-phenylsulfanyl)-5-bromo-1H-indole-2-carboxylic acid amide] | 1.6 |
| 0.08 | – | NC(=O)c1[nH]c2ccccc2c1Sc1ccccc1N [Ih, 3-(2-Amino-phenylsulfanyl)-1H-indole-2-carboxylic acid amide] | – |
| 5.8 | – | COc1ccc(Oc2c(C(N)=O)[nH]c3ccccc23)cc1 [Im] | – |
| 0.89 | – | NC(=O)c1[nH]c2ccccc2c1Oc1ccc(F)cc1 [In] | – |
| 2.4 | – | NC(=O)c1[nH]c2ccccc2c1Oc1ccccc1F [Io] | – |
| 2.8 | – | NC(=O)c1[nH]c2ccccc2c1Oc1ccc(Cl)cc1 [Ip] | – |
| 8.7 | – | CCOc1c(C(N)=O)[nH]c2ccccc12 [Ir, 3-Ethoxy-1H-indole-2-carboxylic acid amide] | – |
